The term EC50 denotes the concentration that produces a half-maximal response. A word on the Ki: it is the dissociation constant of the complex between target and ligand, obtained from inhibition or displacement.

In data set [1] the test system is female diabetic db/db mice. Briefly: serum glucose, triglyceride and thyroxine levels in db/db mice. The following applies: for Glucosc Day 0 / Triglycerides Day 0: Day 0 (pre-treatment).
Description: An assay described below tests the effect of compounds of the invention on serum glucose, tryglyceride and thyroxine levels in female 9-10 weeks old db/db mice.
Female diabetic db/db (9-10 weeks old) mice were maintained on standard laboratory food and treated by oral gavage with vehicle (corn oil), standard compound (2E,4E,1′S,2′S)-3-methyl-5-[2′-methyl-2′-(5,5,8,8-tetramethyl-5,6,7,8-tetrahydro-naphthalen-2-yl)-cyclopropyl]-penta-2,4-dienoic acid (5 mg/kg) or the test compound (5-100 mg/kg, as described in Table 2) daily for seven days at 8:00 AM. Blood samples (70 μl) were taken by orbital bleeding at 11:00 AM on day 0 (pre-treatment), day 3, and day 6. On day 7, a blood sample (700 μl) was taken at 11:00 AM and the animals were sacrificed. Glucose, triglyceride and thyroxine (T4) levels were determined on a Boehringer Manheim Hatachi Clinical Chemistry Analyzer using standard protocols provided by the manufacturer and reagents that were supplied in commercially available kits (glucose and T4: Boehringer Manheim; triglycerides: Roche Diagnostics). A NUMBER OF animals were treated in each group.
Data set [2] deals with T1, RXRβ (Homo sapiens, UniProt P28702).
T1 construct: expressed in transfected cells
T1 sequence (P28702 1-533): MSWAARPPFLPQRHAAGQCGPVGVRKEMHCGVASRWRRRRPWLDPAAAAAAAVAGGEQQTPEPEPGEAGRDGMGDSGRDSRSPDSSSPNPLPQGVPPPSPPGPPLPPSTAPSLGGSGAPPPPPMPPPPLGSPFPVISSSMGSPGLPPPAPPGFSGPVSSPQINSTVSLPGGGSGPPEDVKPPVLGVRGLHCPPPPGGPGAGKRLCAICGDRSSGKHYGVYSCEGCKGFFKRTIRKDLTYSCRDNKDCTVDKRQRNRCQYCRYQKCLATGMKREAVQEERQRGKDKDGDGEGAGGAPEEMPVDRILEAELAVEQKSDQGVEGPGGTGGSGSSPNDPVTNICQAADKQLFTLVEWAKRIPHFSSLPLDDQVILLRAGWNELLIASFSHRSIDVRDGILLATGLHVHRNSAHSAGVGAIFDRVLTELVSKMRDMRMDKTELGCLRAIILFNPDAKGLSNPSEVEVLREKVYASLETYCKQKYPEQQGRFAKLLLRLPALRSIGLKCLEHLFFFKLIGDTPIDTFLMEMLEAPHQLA
The experiment in a line: holoreceptor transactivation assay, RXRβ. The class given is cell-based. The note with it: for EC50: holoreceptor assay, read-out: RXR Trans. EC50 β; for RXR Trans. efficacy β (in parentheses): percentage compared to the standard compound. The text has this:
(§1) A holoreceptor transactivation assay and a ligand binding assay which measure the antagonist/agonist like activity of the compounds of the invention, or their ability to bind to the several retinoid receptor subtypes, respectively, are described in published PCT Application No. WO WO093/11755 (particularly on pages 30-33 and 37-41) published on Jun. 24, 1993, the specification of which is also incorporated herein by reference. A detailed experimental procedure for holoreceptor transactivations has been described by Heyman et al. Cell 68, 397-406, (1992); Allegretto et al. J. Biol. Chem. 268, 26625-26633, and Mangelsdorf et al. The Retinoids: Biology, Chemistry and Medicine, pp 319-349, Raven Press Ltd., New York, which are expressly incorporated herein by reference. The results obtained in this assay are expressed in EC50 numbers, as they are also in the chimeric receptor transactivation assay. The results of the ligand binding assay are expressed in Ki numbers. (See Cheng et al Biochemical Pharmacology Vol. 22 pp 3099-3108, expressly incorporated herein by reference.)
(§2) This standard compound is described in U.S. Pat. No. 6,114,533.
(§3) Table 1 discloses the activity of certain exemplary compounds of the invention in the above-described receptor transactivation and binding assays. Particularly, the transactivation data pertaining to activation of the RAR receptors were obtained in the chimeric assay, and the transactivation data pertaining to the activation of RXR receptors were obtained in the holoreceptor assay.

The target of a further data set is T2, RARβ (Homo sapiens, UniProt P10826).
T2 sequence (P10826 1-455): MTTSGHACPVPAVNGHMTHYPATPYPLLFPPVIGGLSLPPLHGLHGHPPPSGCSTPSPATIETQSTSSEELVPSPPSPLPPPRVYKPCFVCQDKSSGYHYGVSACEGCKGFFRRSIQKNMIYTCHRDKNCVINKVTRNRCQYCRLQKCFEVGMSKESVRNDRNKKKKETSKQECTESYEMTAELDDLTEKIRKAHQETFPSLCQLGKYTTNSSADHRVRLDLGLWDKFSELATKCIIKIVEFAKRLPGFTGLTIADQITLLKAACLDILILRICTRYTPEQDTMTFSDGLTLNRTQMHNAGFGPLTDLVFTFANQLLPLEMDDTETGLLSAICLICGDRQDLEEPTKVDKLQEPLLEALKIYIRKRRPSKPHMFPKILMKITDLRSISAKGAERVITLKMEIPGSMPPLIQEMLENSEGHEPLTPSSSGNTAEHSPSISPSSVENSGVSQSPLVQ
The experiment in a line: ligand binding assay, RARβ. The note with it: read-out: RAR Bind. Ki β.
Description: as §1

The target in data set [3] is T3, RXRγ (Homo sapiens, UniProt P48443).
T3 construct: expressed in transfected cells
T3 sequence (P48443 1-463): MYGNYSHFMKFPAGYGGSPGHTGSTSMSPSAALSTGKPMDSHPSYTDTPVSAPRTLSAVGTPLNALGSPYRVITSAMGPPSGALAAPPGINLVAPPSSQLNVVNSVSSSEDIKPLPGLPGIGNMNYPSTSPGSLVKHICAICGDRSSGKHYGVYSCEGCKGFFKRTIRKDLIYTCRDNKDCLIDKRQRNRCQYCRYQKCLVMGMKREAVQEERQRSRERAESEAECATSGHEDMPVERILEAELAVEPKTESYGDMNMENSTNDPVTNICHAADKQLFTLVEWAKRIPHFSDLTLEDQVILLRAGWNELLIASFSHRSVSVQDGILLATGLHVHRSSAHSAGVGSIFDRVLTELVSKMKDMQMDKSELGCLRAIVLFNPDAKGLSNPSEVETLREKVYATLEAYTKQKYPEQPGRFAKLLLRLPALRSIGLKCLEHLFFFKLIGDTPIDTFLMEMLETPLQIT
The experiment in a line: ligand binding assay, RXRγ. The following applies: read-out: RXR Bind Ki γ.
Description: as §1

The next data set concerns the target T4, RARγ (Homo sapiens, UniProt P13631).
T4 sequence (P13631 1-454): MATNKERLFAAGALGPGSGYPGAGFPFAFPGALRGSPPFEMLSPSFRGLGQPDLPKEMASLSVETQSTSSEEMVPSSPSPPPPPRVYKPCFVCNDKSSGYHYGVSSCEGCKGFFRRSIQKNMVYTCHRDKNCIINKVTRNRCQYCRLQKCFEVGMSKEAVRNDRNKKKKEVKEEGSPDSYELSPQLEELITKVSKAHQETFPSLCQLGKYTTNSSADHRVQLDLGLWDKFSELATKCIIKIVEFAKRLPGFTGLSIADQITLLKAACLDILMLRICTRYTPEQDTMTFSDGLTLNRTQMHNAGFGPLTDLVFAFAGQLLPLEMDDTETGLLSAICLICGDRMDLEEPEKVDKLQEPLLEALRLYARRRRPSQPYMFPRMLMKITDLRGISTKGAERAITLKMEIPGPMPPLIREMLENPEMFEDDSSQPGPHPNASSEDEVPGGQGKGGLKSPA
Briefly: ligand binding assay, RARγ. The note with it: read-out: RAR Bind. Ki γ.
Description: as §1

For data set [4], the target named is T5, RXRα (Homo sapiens, UniProt P19793).
T5 construct: expressed in transfected cells
T5 sequence (P19793 1-462): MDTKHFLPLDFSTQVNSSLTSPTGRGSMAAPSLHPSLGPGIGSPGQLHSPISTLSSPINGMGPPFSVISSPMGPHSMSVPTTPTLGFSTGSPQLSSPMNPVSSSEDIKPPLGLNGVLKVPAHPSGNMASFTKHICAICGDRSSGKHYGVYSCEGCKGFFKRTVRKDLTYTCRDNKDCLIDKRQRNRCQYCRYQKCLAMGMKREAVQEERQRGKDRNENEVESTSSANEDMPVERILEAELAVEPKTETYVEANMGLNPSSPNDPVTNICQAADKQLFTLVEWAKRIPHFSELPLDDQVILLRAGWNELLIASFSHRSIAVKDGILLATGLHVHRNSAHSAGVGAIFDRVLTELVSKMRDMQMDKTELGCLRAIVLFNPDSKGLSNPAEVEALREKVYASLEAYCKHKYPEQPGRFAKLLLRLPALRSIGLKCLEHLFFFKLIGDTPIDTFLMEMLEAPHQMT
The experiment in a line: ligand binding assay, RXRα. The following applies: read-out: RXR Bind Ki α.
Description: as §1

Data set [5] addresses T3, RXRγ. The experiment in a line: holoreceptor transactivation assay, RXRγ. The class given is cell-based. The note with it: for EC50: holoreceptor assay, read-out: RXR Trans. EC50 γ; for RXR Trans. efficacy γ (in parentheses): percentage compared to the standard compound.
Description: as §1, §2, §3

The target of data set [6] is T1, RXRβ. The experiment in a line: ligand binding assay, RXRβ. The note with it: read-out: RXR Bind Ki β.
Description: as §1

Another data set deals with T6, RARα (Homo sapiens, UniProt P10276).
T6 sequence (P10276 1-462): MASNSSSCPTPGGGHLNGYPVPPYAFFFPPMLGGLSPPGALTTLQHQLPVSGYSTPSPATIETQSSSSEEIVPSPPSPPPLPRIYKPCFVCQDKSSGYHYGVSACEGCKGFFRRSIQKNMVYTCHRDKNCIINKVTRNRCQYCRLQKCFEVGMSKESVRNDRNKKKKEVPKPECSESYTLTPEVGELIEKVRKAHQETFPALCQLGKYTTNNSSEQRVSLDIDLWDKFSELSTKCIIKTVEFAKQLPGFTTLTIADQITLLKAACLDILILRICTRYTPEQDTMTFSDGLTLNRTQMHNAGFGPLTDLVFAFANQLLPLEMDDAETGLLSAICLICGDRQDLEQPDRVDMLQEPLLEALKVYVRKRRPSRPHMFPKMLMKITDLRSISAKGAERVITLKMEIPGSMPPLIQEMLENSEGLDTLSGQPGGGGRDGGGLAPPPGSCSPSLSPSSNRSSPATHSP
Briefly: ligand binding assay, RARα. The following applies: read-out: RAR Bind. Ki α.
Description: as §1

Data set [7] concerns the target T5, RXRα. The experiment in a line: holoreceptor transactivation assay, RXRα. The format is cell-based. The following applies: for EC50: holoreceptor assay, read-out: RXR Trans. EC50 α; for RXR Trans. efficacy α (in parentheses): percentage compared to the standard compound.
Description: as §1, §2, §3

For `CC(/C=C/[C@@H]1C[C@]1(C)c1ccc2c(c1)C(C)(C)CCC2(C)C)=C\C(=O)O` [Standard compound, (2E,4E,1′S,2′S)-3-methyl-5-[2′-methyl-2′-(5,5,8,8-tetramethyl-5,6,7,8-tetrahydro-naphthalen-2-yl)-cyclopropyl]-penta-2,4-dienoic acid], in data set [1] (4 mg/kg oral gavage daily), the “Glucosc Day 0” value turned out to be 524 ± 45 mg/dL; the “Triglycerides Day 0” value amounted to 273 ± 66 mg/dL; the “Glucosc Day 3, 3h” value is 512 ± 156 mg/dL; the “Triglycerides Day 3, 3h” value was determined as 755 ± 464 mg/dL. Further, the “Glucosc Day 6, 3h” value in [1] (4 mg/kg oral gavage daily) is 459 ± 148 mg/dL. In addition, the “T4 Day 7” value in data set [1] (4 mg/kg oral gavage daily, Day 7) was found to be 1.4 ± 0.5 µg/dL.
Turning to `CC/C(=C(F)/C=C/C(C)=C/C(=O)O)c1cc(C(C)C)cc2c1N(CC)CCC2(C)C` [Compound 28, (2E,4E,6E)-7-(1-Ethyl-6-isopropyl-4,4-dimethyl-1,2,3,4-tetrahydro-quinolin-8-yl)-6-fluoro-3-methyl-nona-2,4,6-trienoic acid], the figures for the EC50 on RXRβ [2], at RXRγ [5] and on RXRα [7] were 0.4 nM, 0.3 nM and 0.3 nM, respectively. Besides, the “RXR Trans. efficacy β (in parentheses)” value on RXRβ [2] amounted to 66%. Further, the inhibition constant (Ki) on RARβ was 430 nM; at RXRγ [3] it was 21 nM; on RARγ, 2000 nM; at RXRα [4], 2 nM; at RXRβ [6], 21 nM; on RARα, 705 nM. In addition, the “RXR Trans. efficacy γ (in parentheses)” value on RXRγ [5] is listed as 75%. In addition, the “RXR Trans. efficacy α (in parentheses)” value at RXRα [7] was 86%.
For the compound `CCN1CCC(C)(C)c2cc(C(C)C)cc(\C(C)=C(F)/C=C/C(C)=C/C(=O)O)c21` [Compound 27, (2E,4E,6E)-7-(1-Ethyl-6-isopropyl-4,4-dimethyl-1,2,3,4-tetrahydro-quinolin-8-yl)-6-fluoro-3-methyl-octa-2,4,6-trienoic acid], the results for the EC50 at RXRβ [2], on RXRγ [5] and at RXRα [7] were 0.5 nM, 0.1 nM and 0.1 nM, respectively. For the same compound, the “RXR Trans. efficacy β (in parentheses)” value on RXRβ [2] is recorded as 77%. The Ki at RARβ was 840 nM; at RARγ it was 2500 nM; at RXRα [4] it was 1 nM; at RXRβ [6], 11 nM; on RARα it was 680 nM. Also, the “RXR Trans. efficacy γ (in parentheses)” value at RXRγ [5] came to 75%. The “RXR Trans. efficacy α (in parentheses)” value on RXRα [7] amounted to 74%.
`CCCN1CCC(C)(C)c2cc(C(C)C)cc(\C(C)=C(F)/C=C/C(C)=C/C(=O)O)c21` [Compound 29, (2E,4E,6E)-6-Fluoro-7-(6-isopropyl-4,4-dimethyl-1-propyl-1,2,3,4-tetrahydro-quinolin-8-yl)-3-methyl-octa-2,4,6-trienoic acid]: at RXRβ [2], the EC50 was found to be 6 nM and the “RXR Trans. efficacy β (in parentheses)” value is 27%. The Ki at RARβ was determined as 450 nM. The inhibition constant Ki at RARγ was found to be 1400 nM. Moreover, the Ki on RXRα [4] was 1 nM. For the same compound, at RXRγ [5], the concentration for a half-maximal effect (EC50) was 2 nM and the “RXR Trans. efficacy γ (in parentheses)” value was 10%. Also, on RXRβ [6], the Ki worked out at 15 nM. Also, the Ki at RARα is 480 nM. Besides, at RXRα [7], the concentration giving a half-maximal response (EC50) was 2 nM and the “RXR Trans. efficacy α (in parentheses)” value is reported as 32%. Moreover, in data set [1] (50 mg/kg oral gavage daily), the “Glucosc Day 0” value came to 523 ± 84 mg/dL; the “Triglycerides Day 0” value was found to be 316 ± 339 mg/dL; the “Glucosc Day 3, 3h” value turned out to be 476 ± 96 mg/dL; the “Triglycerides Day 3, 3h” value was determined as 326 ± 111 mg/dL. The “Glucosc Day 6, 3h” value in data set [1] (50 mg/kg oral gavage daily) was 441 ± 184 mg/dL.
